Test system: anemic rats
Test: hemoglobin-repletion test in anemic rats (relative bioavailability of iron)
Assay type: in vivo, Sprague-Dawley rats
Details: high iron diet, 20 mg/kg of diet, after 14 days of feeding
Method: Male weanling Sprague-Dawley rats housed individually in stainless steel cages were fed a low-iron diet and de-ionized distilled water ad lib for 24 days. The low-iron diet contained no more than about 3 mg of iron per kg of diet. Following the 24 day depletion period, approximately 200 μl of blood was drawn from the tail vein of each rat for hemoglobin analysis. Anemic rats having hemoglobin values between 30 and 60 g/L were used in the study. The rats were housed individually in cages in a randomized block design.

For ferrous sulfate, the mean hemoglobin response was 31 g/L.
